Test results reported in PubChem BioAssay (NCI).
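Five concentrations, 48 hours, 96-well plates. TGI: total growth inhibition.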

Experiments:
Assay in all cases: growth of human tumour cells (NCI), 48 h
SK-MEL-28 melanoma = test system: SK-MEL-28 melanoma
COLO 205 colon = test system: COLO 205 colon
UACC-257 melanoma = test system: UACC-257 melanoma
SR leukemia = test system: SR leukemia
MDA-MB-231 breast = test system: MDA-MB-231 breast
OVCAR-5 ovarian = test system: OVCAR-5 ovarian
SNB-75 CNS = test system: SNB-75 CNS
NCI-H460 lung = test system: NCI-H460 lung
A498 renal = test system: A498 renal
OVCAR-8 ovarian = test system: OVCAR-8 ovarian
UACC-62 melanoma = test system: UACC-62 melanoma
SK-OV-3 ovarian = test system: SK-OV-3 ovarian
NCI/ADR-RES ovarian = test system: NCI/ADR-RES ovarian
HCT-15 colon = test system: HCT-15 colon
SW-620 colon = test system: SW-620 colon
SF-268 CNS = test system: SF-268 CNS
MDA-MB-435 = test system: MDA-MB-435
786-0 renal = test system: 786-0 renal
DU-145 prostate = test system: DU-145 prostate
LOX IMVI melanoma = test system: LOX IMVI melanoma

Row | SMILES | TGI (SK-MEL-28 melanoma) [µM] | TGI (COLO 205 colon) [µM] | TGI (UACC-257 melanoma) [µM] | TGI (SR leukemia) [µM] | TGI (MDA-MB-231 breast) [µM] | TGI (OVCAR-5 ovarian) [µM] | TGI (SNB-75 CNS) [µM] | TGI (NCI-H460 lung) [µM] | TGI (A498 renal) [µM] | TGI (OVCAR-8 ovarian) [µM] | TGI (UACC-62 melanoma) [µM] | TGI (SK-OV-3 ovarian) [µM] | TGI (NCI/ADR-RES ovarian) [µM] | TGI (HCT-15 colon) [µM] | TGI (SW-620 colon) [µM] | TGI (SF-268 CNS) [µM] | TGI (MDA-MB-435) [µM] | TGI (786-0 renal) [µM] | TGI (DU-145 prostate) [µM] | TGI (LOX IMVI melanoma) [µM]
1 | Cc1sc(N)c(S(=O)(=O)c2ccccc2)c1C | > 100 | > 100 | > 100 | > 100 | > 100 | > 100 | > 100 | > 100 | > 100 | > 100 | > 100 | > 100 | > 100 | > 100 | > 100 | > 100 | > 100 | > 100 | > 100 | 
2 | CC1(C)CC(=O)c2c(nc(SSc3nc4c(c(-c5ccc(Br)cc5)c3C#N)C(=O)CC(C)(C)C4)c(C#N)c2-c2ccc(Br)cc2)C1 | > 10 | > 10 | > 10 | > 10 |  | > 10 | > 10 | > 10 | > 10 | > 10 |  | > 10 | > 10 | > 10 | > 10 | > 10 |  | > 10 | > 10 | > 10
3 | CN(NC(=O)/C(=C\c1ccco1)NC(=O)c1ccccc1)c1cn[nH]c(=O)c1Cl | > 100 | > 100 | > 100 | > 100 | > 100 | > 100 | 84.2 | > 100 |  | > 100 | > 100 | > 100 | > 100 | > 100 | > 100 | > 100 | > 100 | > 100 | > 100 | 58.2
4 | CCCC(=O)Oc1ccc2c(C)cc(=O)oc2c1OC(=O)CCC | > 100 | > 100 | > 100 | > 100 | > 100 | > 100 | > 100 |  | > 100 | > 100 | > 100 | > 100 | > 100 | > 100 | > 100 | > 100 | > 100 | > 100 | > 100 | > 100
5 | COc1cccc(NC(=O)CC(=O)N2N=C(C)C(N=Nc3ccc(S(=O)(=O)CCOS(=O)(=O)O)cc3)C2=O)c1 (centres undefined) | 16.9 | 31.5 | 23 | > 100 | 25.6 | 44.9 | 15.5 | 17.9 | 22.7 | 15.5 |  |  | > 100 | 12.1 | 12.7 |  | 10.4 | 9.07 | 29.6 | 4.25
6 | C[C@@H]1OC(=O)C[C@H]2CC(=O)N(CCC3CN(S(=O)(=O)C(F)(F)F)c4ccccc43)C[C@@H]21 (some centres undefined) | > 100 | > 100 | > 100 | > 100 | > 100 | > 100 |  | > 100 | > 100 |  | > 100 | > 100 | > 100 | > 100 | > 100 |  | > 100 | > 100 | > 100 | 
7 | Cc1cc(=O)oc2c3c(ccc12)OC(c1ccc(Br)cc1)CC3=O (centres undefined) | 21.3 | 30.5 | 27.9 | > 100 | 37.8 | 31.4 | 18.6 | 36.8 |  | 33.7 | 23.7 | 30.3 | > 100 | 34.2 | 23.9 | 32.1 | 16.9 | 25.5 |  | 14.6
8 | COc1ccc([C@]23CCN(S(=O)(=O)c4ccc(C)cc4)[C@H]2[C@H](CO)C2(CC3)OCC(C)(C)CO2)cc1OC | > 100 | > 100 | > 100 | > 100 | > 100 | > 100 | > 100 | > 100 | > 100 | > 100 | > 100 | > 100 | > 100 | > 100 | > 100 |  | > 100 | > 100 | > 100 | > 100
9 | CCN(CC)c1ccc2cc(C(=O)Nc3nc(C45CC6CC(CC(C6)C4)C5)cs3)c(=O)oc2c1 | > 100 | > 100 | > 100 | > 100 | > 100 | > 100 |  | > 100 | > 100 | > 100 |  |  | > 100 | > 100 | > 100 | > 100 | > 100 | > 100 | > 100 | > 100
10 | O=[N+]([O-])C(=C(Nc1ccccc1)Nc1ccccc1)/C(Cl)=C(\Cl)Br | 29.9 |  | 27.8 | 22.6 | 29 | 22.5 | 28.4 | 54.5 | 35.6 | 37 |  |  | 29.7 | 24.2 | 18.8 | 43.1 |  | 31.2 | 31.1 | 15.2
11 | COC(=O)c1nc(-c2nc(CCNC(=O)OC(C)(C)C)sc2Cl)sc1Cl | > 100 | > 100 | > 100 | > 100 |  | > 100 | > 100 | > 100 | > 100 | > 100 | > 100 | > 100 | > 100 | > 100 | > 100 | > 100 | > 100 | > 100 | > 100 | 
12 | COc1ccc2c(c1)CCC1=C/C(=N\NC(N)=O)CCC12C (centres undefined) | > 10 | > 10 | > 10 | > 10 | > 10 |  | > 10 |  |  | > 10 | > 10 | > 10 | > 10 | > 10 | > 10 | > 10 | > 10 | > 10 | > 10 | > 10
13 | Nc1cc(N2CCOCC2)nc(=O)n1-c1ccc(Cl)cc1 | > 100 | > 100 | > 100 | > 100 |  | > 100 | > 100 | > 100 | > 100 | > 100 | > 100 | > 100 | > 100 | > 100 | > 100 |  | > 100 | > 100 | > 100 | > 100
14 | CCOP(=O)(OCC)[C@]12C[C@@H](C)C=C[C@H]1COC2=O | > 100 | > 100 | > 100 | > 100 | > 100 | > 100 | > 100 | > 100 | > 100 | > 100 | > 100 | > 100 |  |  | > 100 | > 100 | > 100 | > 100 | > 100 | > 100
15 | O=C(NCCNCCNC(=O)C(F)(F)F)C(F)(F)F | > 100 | > 100 | > 100 | > 100 | > 100 | > 100 |  |  |  | > 100 | > 100 | > 100 | > 100 | > 100 | > 100 | > 100 | > 100 | > 100 | > 100 | > 100
16 | C/C(=N\Nc1nc2ccccc2o1)c1cc(C)ncn1 | > 100 | > 40.8 |  | > 100 | 75 | 26.8 | 3.27 | 30.5 | > 100 | 0.0519 |  | 2.5 | 0.0739 | 35.3 | > 100 |  | > 100 | 24.3 | > 100 | 
17 | O=C(Cn1c2ccc(Br)cc2c2nc3ccccc3nc21)N/N=C/c1ccccc1 | > 100 | > 100 | > 100 | > 100 | > 100 | > 100 | > 100 |  | > 100 | > 100 | > 100 | > 100 | > 100 |  | > 100 | > 100 | > 100 | 94.8 | > 100 | 
18 | COc1ccc(CCNC(=O)CCc2ccccc2CO)cc1OC | > 100 | > 100 | > 100 | > 100 | > 100 | > 100 | > 100 | > 100 | > 100 | > 100 | > 100 | > 100 | > 100 | > 100 | > 100 | > 100 | > 100 | > 100 | > 100 | 
19 | CC1(C)N=C(C(=O)c2ccccc2)N(O)C1(O)c1ccccc1 (centres undefined) | > 100 | > 100 | > 100 | > 100 | > 100 | > 100 | > 100 | > 100 |  | > 100 | > 100 | > 100 | > 100 | > 100 | > 100 | > 100 | > 100 | > 100 | > 100 | > 100
20 | CSc1nc2c(c(O)c(C)c(=O)n2C2OCC(OC(C)=O)C(OC(C)=O)C2OC(C)=O)c(=O)n1C (centres undefined) | > 100 | > 100 | > 100 | > 100 |  | > 100 | > 100 | > 100 | > 100 | > 100 | > 100 | > 100 |  | > 100 | > 100 | > 100 |  | > 100 |  | > 100
21 | CC(C)c1cccc(C(=O)NCCN(C)C)c1[N+](=O)[O-] | > 100 | > 100 | > 100 | > 100 | > 100 | > 100 | > 100 | > 100 | > 100 | > 100 | > 100 | > 100 | > 100 | > 100 | > 100 | > 100 | > 100 | > 100 | > 100 | 
22 | CC1CN=C(NS(=O)(=O)c2cc(C(=O)Nc3ccc(F)cc3)c(Cl)cc2S)NN1 (centres undefined) | > 100 | > 100 | > 100 | > 100 | > 100 | > 100 |  | > 100 | 64.1 | > 100 | > 100 | > 100 | > 100 | > 100 | > 100 | > 100 | > 100 | > 100 | > 100 | > 100
23 | COc1ccc(NS(=O)c2ccccc2OC)cc1 (centres undefined) | > 100 | 48.6 | > 100 | > 100 | > 100 | > 100 |  | > 100 |  | > 100 | 20.5 |  | > 100 | > 100 | > 100 | 39.6 | > 100 | > 100 | > 100 | > 100
24 | CC(=O)N/N=C1/CC[C@@]2(C)C(=CC[C@H]3C4CCC(C(C)CCCC(C)C)[C@@]4(C)CCC32)C1(C)C (some centres undefined) | > 100 | > 100 | > 100 | > 100 |  | > 100 | > 100 | > 100 |  | > 100 | > 100 | > 100 | > 100 | > 100 | > 100 | > 100 | > 100 | > 100 | > 100 | > 100
25 | CCSC1=N/C(=C/c2ccccc2O)C(=O)N1 | > 100 | > 100 | > 100 | > 100 | > 100 | > 100 | 72.1 | > 100 |  | > 100 | > 100 | > 100 | > 100 | > 100 | > 100 | > 100 | > 100 | > 100 | > 100 | > 100
